Where a name gives a salt, the structure may show the parent alone. Read-outs that look alike come from different tables or passages of the source.
What was measured:
[1] = tested on: SKOV-3 (ATCC #HTB-77) (ovarian); conditions: SKOV-3 (OVARIAN); NCI GI50 values; read-out: GI50 (drug concentration that produces 50% cell growth inhibition); cited from earlier work
[2] = tested on: HCT-116 (ATCC #CCL-247) (colorectal); conditions: HCT-116 (COLON); NCI GI50 values; read-out: GI50 (drug concentration that produces 50% cell growth inhibition); cited from earlier work
[3] = tested on: HCT-15 (ATCC #CCL-225) (colorectal); conditions: HCT-15 (COLON); NCI GI50 values; read-out: GI50 (drug concentration that produces 50% cell growth inhibition); cited from earlier work
[4] = Solubility comparison in various solvents
Description: Compounds were dissolved in each solvent under constant stirring and temperature.

[5] = tested on: NCI-H460 (ATCC #HTB-177) (non-small cell lung); conditions: H460 (NSCLC); NCI GI50 values; read-out: GI50 (drug concentration that produces 50% cell growth inhibition); cited from earlier work
[6] = tested on: HCT-116 (ATCC #CCL-247) (colorectal); type: cell-based; conditions: for GI50: read-out: GI50 (drug concentration that produces 50% cell growth inhibition); for GI50 (drug concentration that produces 50% cell growth inhibition): result in words
[7] = tested on: HCT-15 (ATCC #CCL-225) (colorectal); type: cell-based; conditions: for GI50: read-out: GI50 (drug concentration that produces 50% cell growth inhibition); for GI50 (drug concentration that produces 50% cell growth inhibition): result in words
[8] = tested on: NCI-H460 (ATCC #HTB-177) (non-small cell lung); type: cell-based; conditions: for GI50: read-out: GI50 (drug concentration that produces 50% cell growth inhibition); for GI50 (drug concentration that produces 50% cell growth inhibition): result in words
[9] = tested on: SKOV-3 (ATCC #HTB-77) (ovarian); type: cell-based; conditions: for GI50: read-out: GI50 (drug concentration that produces 50% cell growth inhibition); for GI50 (drug concentration that produces 50% cell growth inhibition): result in words

SMILES | GI50 [1] [nM] | GI50 [2] [nM] | GI50 [5] [nM] | GI50 ([6]; HCT-116 (COLON), 48 hours) [nM] | GI50 ([7]; HCT-15 (COLON), 48 hours) [nM] | GI50 ([8]; H460 (NSCLC), 48 hours) [nM] | GI50 (drug concentration that produces 50% cell growth inhibition) ([9]; SKOV-3 (OVARIAN), 48 hours) | other results
CC[C@@]1(O)C(=O)OCc2c1cc1n(c2=O)Cc2cc3ccccc3nc2-1 [Camptothecin, camptothecin] | 25 | 40 | 16 |  |  |  |  | GI50 [3]: 160 nM; Solubility ([4]; Acetonitrile, r.t.): 0.09 mg/g; Solubility ([4]; Soybean Oil USP, r.t.): 0.00 mg/g
CCc1c2c(nc3ccc(OC(=O)CC4(CC(=O)O[C@H]5CC[C@@]6(C)C(=CC[C@H]7[C@@H]8CC[C@H]([C@H](C)CCCC(C)C)[C@@]8(C)CC[C@@H]76)C5)CCCC4)cc13)-c1cc3c(c(=O)n1C2)COC(=O)[C@]3(O)CC [Cholesterol 3,3-tetramethylene glutaric-10-(7-ethyl-10-hydroxycamptothecin)] |  |  |  | 2000 | 12600 | 871 |  | GI50 ([9]; SKOV-3 (OVARIAN), 48 hours): 295 nM
CC[C@@]1(OC(=O)CC2(CC(=O)O[C@H]3CC[C@@]4(C)C(=CC[C@H]5[C@@H]6CC[C@H]([C@H](C)CCCC(C)C)[C@@]6(C)CC[C@@H]54)C3)CCCC2)C(=O)OCc2c1cc1n(c2=O)Cc2cc3ccccc3nc2-1 [Cholesterol 3,3-tetramethylene glutaric-20-camptothecin] |  |  |  | ~10000 | ~10000 | ~10000 | poor | 
CCc1c2c(nc3ccc(OC(=O)CC(C)CC(=O)O[C@H]4CC[C@@]5(C)C(=CC[C@H]6[C@@H]7CC[C@H]([C@H](C)CCCC(C)C)[C@@]7(C)CC[C@@H]65)C4)cc13)-c1cc3c(c(=O)n1C2)COC(=O)[C@]3(O)CC (stereo partly drawn) [Cholesterol 3-methyl glutaric-10-SN38, Cholesterol 3-methylglutaric-10-(7-ethyl-10-hydroxycamptothecin)] |  |  |  | 263 | 2880 | 245 | poor | 
CC[C@@]1(OC(=O)CC(C)CC(=O)O[C@H]2CC[C@@]3(C)C(=CC[C@H]4[C@@H]5CC[C@H]([C@H](C)CCCC(C)C)[C@@]5(C)CC[C@@H]43)C2)C(=O)OCc2c1cc1n(c2=O)Cc2cc3ccccc3nc2-1 (stereo partly drawn) [Cholesterol 3-methyl glutaric-20-CPT, Cholesterol 3-Methyglutaric-20-Camptothecin] |  |  |  |  |  |  | poor | GI50 (drug concentration that produces 50% cell growth inhibition) ([6]; HCT-116 (COLON), 48 hours): poor; GI50 (drug concentration that produces 50% cell growth inhibition) ([7]; HCT-15 (COLON), 48 hours): poor; GI50 (drug concentration that produces 50% cell growth inhibition) ([8]; H460 (NSCLC), 48 hours): poor
CCc1c2c(nc3ccc(OC(=O)O[C@H]4CC[C@@]5(C)C(=CC[C@H]6[C@@H]7CC[C@H]([C@H](C)CCCC(C)C)[C@@]7(C)CC[C@@H]65)C4)cc13)-c1cc3c(c(=O)n1C2)COC(=O)[C@]3(O)CC [Cholesterol formate-10-SN38, Cholesterol formate-10-(7-ethyl-10-hydroxycamptothecin)] |  |  |  | 631 | 1910 | 10.5 |  | Solubility ([4]; Acetonitrile, r.t.): <1 mg/g; Solubility ([4]; Chloroform, r.t.): >40 mg/g; Solubility ([4]; Soybean Oil USP, r.t.): <1 mg/g; Solubility ([4]; Vitamin E USP/NF, 65 °C): >14 mg/g; GI50 ([9]; SKOV-3 (OVARIAN), 48 hours): 51.4 nM
CC[C@@]1(OC(=O)O[C@H]2CC[C@@]3(C)C(=CC[C@H]4[C@@H]5CC[C@H]([C@H](C)CCCC(C)C)[C@@]5(C)CC[C@@H]43)C2)C(=O)OCc2c1cc1n(c2=O)Cc2cc3ccccc3nc2-1 [Cholesterol formate-20-CPT, Cholesterol Formate-20-camptothecin] |  |  |  |  |  |  | poor | GI50 (drug concentration that produces 50% cell growth inhibition) ([6]; HCT-116 (COLON), 48 hours): poor; Solubility ([4]; Acetonitrile, r.t.): <1 mg/g; Solubility ([4]; Chloroform, r.t.): >335 mg/g; Solubility ([4]; Soybean Oil USP, r.t.): >2 mg/g; Solubility ([4]; Vitamin E USP/NF, 65 °C): >32 mg/g; GI50 (drug concentration that produces 50% cell growth inhibition) ([7]; HCT-15 (COLON), 48 hours): poor; GI50 (drug concentration that produces 50% cell growth inhibition) ([8]; H460 (NSCLC), 48 hours): poor
CCc1c2c(nc3ccc(OC(=O)CCC(=O)O[C@H]4CC[C@@]5(C)C(=CC[C@H]6[C@@H]7CC[C@H]([C@H](C)CCCC(C)C)[C@@]7(C)CC[C@@H]65)C4)cc13)-c1cc3c(c(=O)n1C2)COC(=O)[C@]3(O)CC [Cholesterol succinate-10-SN38, Cholesterol succinate-10-(7-ethyl-10-hydroxycamptothecin)] |  |  |  |  |  |  |  | GI50 [6]: 339 nM; GI50 [7]: 635 nM; GI50 [8]: 1660 nM; GI50 [9]: 708 nM
CC[C@@]1(OC(=O)CCC(=O)O[C@H]2CC[C@@]3(C)C(=CC[C@H]4[C@@H]5CC[C@H]([C@H](C)CCCC(C)C)[C@@]5(C)CC[C@@H]43)C2)C(=O)OCc2c1cc1n(c2=O)Cc2cc3ccccc3nc2-1 [Cholesterol succinate-20-CPT, Cholesterol succinate-20-camptothecin] |  |  |  | > 5000 | > 5000 | > 5000 |  | GI50 ([9]; SKOV-3 (OVARIAN), 48 hours): > 5000 nM
CCc1c2c(nc3ccc(OC(=O)N4CCC(N5CCCCC5)CC4)cc13)-c1cc3c(c(=O)n1C2)COC(=O)[C@]3(O)CC [Irinotecan, irinotecan] | 17 | 7900 | 5010 |  |  |  |  | 
CCc1c2c(nc3ccc(O)cc13)-c1cc3c(c(=O)n1C2)COC(=O)[C@]3(O)CC [SN38, 7-ethyl-10-hydroxycamptothecin] | 1 | 21 | 1.4 |  |  |  |  | GI50 [3]: 7.9 nM
CC[C@@]1(O)C(=O)OCc2c1cc1n(c2=O)Cc2cc3c(CN(C)C)c(O)ccc3nc2-1 [Topotecan, topotecan] | 63 | 39.8 | 19.9 |  |  |  |  | GI50 [3]: 501 nM

Source: US20060003976A1, “Cholesterol/bile acid/bile acid derivative-modified therapeutic drug compounds” (priority 2004, published 2006)
